{"source": "patent US20110256613A1", "about": "“Designer proton-channel transgenic algae for photobiological hydrogen production” (priority 2006, published 2011)", "key": {"photosystem II (PSII)": {"system": "photosystem II (PSII)", "conditions": "addition of HCO3− to HCO3−-depleted samples; cited from earlier work"}, "algal system": {"system": "algal system", "assay": "Competitive inhibition of photosynthetic H2 production by CO2", "format": "cell-based", "description": "(2). Competitive inhibition of photosynthetic H2 production by CO2. […] This inhibition of H2 evolution by CO2 has been characterized in experimental studies at ORNL. […] Therefore, unless the alga is genetically reengineered to control the Calvin cycle activity, photosynthetic H2 production would require a nearly CO2-free environment."}, "[1]": {"system": "photosystem II (PSII) water-splitting complex in algal cells", "conditions": "cited from earlier work"}, "algal H2 production": {"system": "algal H2 production", "assay": "Competitive inhibition of photosynthetic H2 production by O2", "format": "cell-based", "description": "(§1) (4). Competitive drainage of electrons by O2 in algal H2 production. We have recently discovered a new O2 sensitivity in algal H2 production that is distinct from the O2 sensitivity of hydrogenase per se. This O2 sensitivity is apparently linked to the photosynthetic H2 production pathway that is coupled to proton translocation across the thylakoid membrane. […] This inhibition is likely due to the background O2, which apparently serves as a terminal electron acceptor in competition with the H2-production pathway for photosynthetically generated electrons from water splitting. The Rubisco enzyme of the Calvin cycle is known to be also an oxygenase in addition to its carboxylase activity. […] That is, the drainage of electrons by O2 is likely to occur at the point of Rubisco, which is one of the key enzymes of the Calvin cycle. This competitive inhibition of H2 production by O2 is much more of a problem than the traditionally known O2 sensitivity of the hydrogenase per se. […] The competitive inhibition of H2 production by O2 is about 10 times more sensitive to O2 than the traditionally known O2 sensitivity of hydrogenase. The drainage of electrons by O2 in competition with the Fd/hydrogenase H2 production pathway is 10 time more sensitive to O2 than the O2 sensitivity of the hydrogenase. […]"}, "algal hydrogenase": {"system": "algal hydrogenase", "assay": "O2 sensitivity of hydrogenase per se", "format": "biochemical", "description": "as §1"}}}
{"compound": "O=C(O)O", "note": "[HCO3^−, Bicarbonate]", "values": [{"measurement": "stimulation of PSII electron-transport activity", "setting": "photosystem II (PSII)", "result": "6- to 7 fold"}]}
{"compound": "O=C=O", "note": "[CO2, carbon dioxide]", "values": [{"measurement": "steady-state H2 photoevolution after CO2 injection", "setting": "algal system; injection of 58 ppm CO2", "result": "inhibited to nearly zero"}, {"measurement": "CO2 concentration to which the algal system is sensitive", "setting": "algal system; lowest concentration, H2 photoevolution", "result": 30, "unit": "ppm"}]}
{"compound": "N#CC(C#N)=NNc1cccc(Cl)c1", "note": "[CCCP, carbonyl cyanide m-chlorophenylhydrazone]", "values": [{"measurement": "side effects on photosynthetic activity (ADRY effect)", "setting": "[1]", "result": "undesirable side effects"}]}
{"compound": "O=O", "note": "[O2]", "values": [{"measurement": "O2 concentration that inhibits photosynthetic H2 production", "setting": "algal H2 production; lowest inhibiting concentration", "result": "500-1000 ppm"}, {"measurement": "O2 sensitivity of competitive inhibition of H2 production relative to O2 sensitivity of hydrogenase", "setting": "algal H2 production; ratio versus hydrogenase O2 sensitivity", "result": "about 10 times"}, {"measurement": "O2 concentration at which algal hydrogenase is still active", "setting": "algal hydrogenase", "result": 5000, "unit": "ppm"}]}
